From patent US10870875B2, “Metalloprotein compositions” (Commonwealth Scientific and Industrial Research Organisation, priority 2014, dated 2020)

Experiments:
[1] = molecular target: T1, Oecophylla smaragdina silk fibroin 1 (GA1), SEQ ID NO: 9 (Oecophylla smaragdina, UniProt A8IM81); assay: Haem b leached into green ant silk GA1 film; format: binding; conditions: signal at around 400 nm
T1 construct: film
T1 sequence (A8IM81 20-391): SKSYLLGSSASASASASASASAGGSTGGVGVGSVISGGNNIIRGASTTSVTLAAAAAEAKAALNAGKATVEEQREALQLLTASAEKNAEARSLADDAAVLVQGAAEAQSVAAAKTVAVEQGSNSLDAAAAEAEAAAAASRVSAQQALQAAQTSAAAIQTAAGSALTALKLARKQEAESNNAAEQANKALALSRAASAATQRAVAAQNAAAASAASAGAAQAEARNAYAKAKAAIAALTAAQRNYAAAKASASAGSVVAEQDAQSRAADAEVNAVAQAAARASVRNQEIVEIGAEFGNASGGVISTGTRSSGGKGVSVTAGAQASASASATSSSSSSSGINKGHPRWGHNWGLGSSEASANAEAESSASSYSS
From the text: Full length, recombinant honeybee silk proteins (AmelF3) without affinity purification tags, were produced by fermentation in Escherichia coli as described in Weisman et al. (2010). Full length, recombinant Weaver Ant/Green Ant (Oecophylla smaragdina) silk proteins (GA1, GA2, GA3, GA4) without affinity purification tags, were produced by fermentation in Escherichia coli following the same procedures as outlined in Weisman et al. (2010).
Alternatively, haem b was ‘leached’ into a pre-formed film. The AmelF3 material was formed as described in example 1. The silk material was soaked in a solution of haem b (0.5 mg/mL; haem b in excess) in 70% methanol solution for between 1 and 48 hours followed by washing with 70% methanol to remove any unbound haem b and dried at room temperature.
Transparent films from the Green Ant (Oecophylla smaragdina) (GA1-4) silk proteins were prepared as described above. Haem b in 70% methanol was leached into the preformed Green Ant silk film as described at Example 3. UV/Vis spectra were collected for Green Ant silk film after haem b had been leached.

[2] = molecular target: T2, Apis mellifera AmelF3 (SEQ ID NO: 39) variant Tyr76Ala (Apis mellifera, UniProt A0ACM8QI31, Y95A); assay: Binding of chelates to AmelF3 Tyr76Ala sponges or films; conditions: sponge washed with aqueous methanol, qualitative
T2 construct: sponge or film
Method: (§1) Site directed mutagenesis of honeybee silk proteins was carried using methods known to the person skilled in the art. For example, to generate AmelF3 Tyr76Ala, the forward primer 5′-[…]-3′ (SEQ ID NO: 80) with the corresponding reverse primer was employed and site directed mutagenesis was carried out using Pfx 50 DNA polymerase from Invitrogen following the Pfx50 manufactures instructions. All AmelF3 mutants were expressed and purified using a similar procedure as the unmodified AmelF3 silk protein. To generate AmelF3 Tyr76His, the forward primer 5′-[…]-3′ (SEQ ID NO: 81) with the corresponding reverse primer was employed. To generate AmelF3 Ala97His, the forward primer 5′-[…]-3′ (SEQ ID NO: 82) was used.
To test whether Tyr76 was indeed the coordinating ligand, the present inventors replaced Tyr76 with an alanine using site directed mutagenesis of the AmelF3 silk gene.

[3] = molecular target: T3, Apis mellifera AmelF3 (SEQ ID NO: 39) variant Y76H A97H (Apis mellifera, UniProt A0ACM8QI31, A116H/Y95H); assay: Binding of heme to AmelF3 Y76H A97H; conditions: Soret peak vs heme ratio
T3 sequence (A0ACM8QI31 20-335 Y95H/A116H): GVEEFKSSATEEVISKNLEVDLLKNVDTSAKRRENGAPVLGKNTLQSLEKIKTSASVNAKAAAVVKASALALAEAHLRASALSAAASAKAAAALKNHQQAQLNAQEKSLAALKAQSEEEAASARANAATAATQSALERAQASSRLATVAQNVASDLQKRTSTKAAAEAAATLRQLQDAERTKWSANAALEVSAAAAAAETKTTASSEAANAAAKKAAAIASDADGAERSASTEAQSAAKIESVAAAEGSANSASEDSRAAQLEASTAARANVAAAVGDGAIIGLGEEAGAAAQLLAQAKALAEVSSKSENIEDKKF
Method: as §1
A coordinating His residue (His97) was introduced into AmelF3 with Y76H substitution in the a-position of the coiled-coil.

T2 sequence (A0ACM8QI31 entry or part of it Y95A): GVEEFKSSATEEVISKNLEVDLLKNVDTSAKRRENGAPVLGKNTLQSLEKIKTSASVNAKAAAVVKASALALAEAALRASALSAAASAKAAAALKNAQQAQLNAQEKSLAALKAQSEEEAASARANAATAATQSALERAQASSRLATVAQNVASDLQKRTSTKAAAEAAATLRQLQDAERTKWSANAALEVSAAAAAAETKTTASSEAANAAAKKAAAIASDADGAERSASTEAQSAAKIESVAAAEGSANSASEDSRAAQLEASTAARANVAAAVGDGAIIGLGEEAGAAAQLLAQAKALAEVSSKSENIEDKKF

Compound: C=CC1=C(C)c2cc3[nH]c(cc4nc(cc5[nH]c(cc1n2)c(C)c5CCC(=O)O)C(CCC(=O)O)=C4C)c(C)c3C=C.[Fe] [haem b]
- haem binding (in words) [1]: strongly bound haem
- binding to silk protein (in words) [2]: bound to the silk protein, the metal ion was not coordinated to the polypeptide
- number of heme cofactors bound [3]: two
